pEC50: −log10 of the molar value.
Assays:
[1] = system: BaF3; experiment: Antiproliferative activity against mouse BAF3 cells; format: functional, cell-based
[2] = system: Tyrosine-protein kinase ABL1 (Homo sapiens), P00519 [H396P]; experiment: Inhibition of phosphorylated ABL1 H396P mutant at 10 uM; settings: values are per cent of control
[3] = target: Atypical kinase COQ8A, mitochondrial (Homo sapiens) (UniProt Q8NI60); experiment: Inhibition of ADCK3 at 10 uM; settings: values are per cent of control
[4] = target: Mitogen-activated protein kinase kinase kinase 5 (Homo sapiens) (UniProt Q99683); experiment: Inhibition of ASK1 at 10 uM; settings: values are per cent of control
[5] = target: Tyrosine-protein kinase Blk (Homo sapiens) (UniProt P51451); experiment: Inhibition of BLK at 10 uM; settings: values are per cent of control
[6] = target: Casein kinase II subunit alpha (Homo sapiens) (UniProt P68400); experiment: Inhibition of CSNK2A1 at 10 uM; settings: values are per cent of control
[7] = target: Dual specificity tyrosine-phosphorylation-regulated kinase 2 (Homo sapiens) (UniProt Q92630); experiment: Inhibition of DYRK2 at 10 uM; settings: values are per cent of control
[8] = target: Ephrin type-A receptor 7 (Homo sapiens) (UniProt Q15375); experiment: Inhibition of EPHA7 at 10 uM; settings: values are per cent of control
[9] = system: Fibroblast growth factor receptor 3 (Homo sapiens), P22607 [G697C]; experiment: Inhibition of FGFR3 G697C mutant at 10 uM; settings: values are per cent of control
[10] = system: Receptor-type tyrosine-protein kinase FLT3 (Homo sapiens), P36888 [N841I]; experiment: Inhibition of FLT3 N841I mutant at 10 uM; settings: values are per cent of control
[11] = target: Homeodomain-interacting protein kinase 4 (Homo sapiens) (UniProt Q8NE63); experiment: Inhibition of HIPK4 at 10 uM; settings: values are per cent of control
[12] = target: Serine/threonine-protein kinase ICK (Homo sapiens) (UniProt Q9UPZ9); experiment: Inhibition of ICK at 10 uM; settings: values are per cent of control
Sequence of Serine/threonine-protein kinase ICK (Homo sapiens) (Q9UPZ9 whole entry): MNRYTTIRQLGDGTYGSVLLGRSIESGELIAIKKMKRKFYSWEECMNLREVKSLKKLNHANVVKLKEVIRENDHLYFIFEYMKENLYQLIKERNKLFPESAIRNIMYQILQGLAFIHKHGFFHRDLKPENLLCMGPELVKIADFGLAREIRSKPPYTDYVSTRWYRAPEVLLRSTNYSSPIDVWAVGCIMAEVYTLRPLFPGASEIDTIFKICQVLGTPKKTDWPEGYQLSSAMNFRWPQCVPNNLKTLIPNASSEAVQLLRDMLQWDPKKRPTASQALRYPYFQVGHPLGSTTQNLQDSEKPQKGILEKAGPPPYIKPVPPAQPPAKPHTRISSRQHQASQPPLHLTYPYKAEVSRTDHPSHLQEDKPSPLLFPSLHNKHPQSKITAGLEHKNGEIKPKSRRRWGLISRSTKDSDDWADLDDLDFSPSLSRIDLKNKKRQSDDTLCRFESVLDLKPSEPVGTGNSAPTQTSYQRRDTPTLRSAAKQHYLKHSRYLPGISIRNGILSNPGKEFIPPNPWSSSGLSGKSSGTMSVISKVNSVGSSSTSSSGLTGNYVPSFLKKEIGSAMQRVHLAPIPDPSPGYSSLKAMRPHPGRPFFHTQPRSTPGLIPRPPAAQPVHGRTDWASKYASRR

[13] = system: Mast/stem cell growth factor receptor Kit (Homo sapiens), P10721 [D816H]; experiment: Inhibition of KIT D816H mutant at 10 uM; settings: values are per cent of control
[14] = target: Mitogen-activated protein kinase kinase kinase 15 (Homo sapiens) (UniProt Q6ZN16); experiment: Inhibition of MAP3K15 at 10 uM; settings: values are per cent of control
[15] = target: MAP kinase-activated protein kinase 5 (Homo sapiens) (UniProt Q8IW41); experiment: Inhibition of MAPKAPK5 at 10 uM; settings: values are per cent of control
[16] = target: Dual specificity mitogen-activated protein kinase kinase 3 (Homo sapiens) (UniProt P46734); experiment: Inhibition of MEK3 at 10 uM; settings: values are per cent of control
Sequence of Dual specificity mitogen-activated protein kinase kinase 3 (Homo sapiens) (P46734 whole entry): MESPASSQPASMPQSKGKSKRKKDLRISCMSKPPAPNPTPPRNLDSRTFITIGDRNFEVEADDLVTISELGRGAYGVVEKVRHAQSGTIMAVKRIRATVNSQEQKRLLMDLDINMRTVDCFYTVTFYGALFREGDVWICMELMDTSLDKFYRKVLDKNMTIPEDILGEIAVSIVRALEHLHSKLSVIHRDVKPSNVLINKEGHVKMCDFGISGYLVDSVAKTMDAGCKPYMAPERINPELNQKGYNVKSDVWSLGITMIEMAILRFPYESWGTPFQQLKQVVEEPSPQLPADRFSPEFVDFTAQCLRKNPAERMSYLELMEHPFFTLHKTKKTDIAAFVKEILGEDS

[17] = target: MAP kinase-interacting serine/threonine-protein kinase 1 (Homo sapiens) (UniProt Q9BUB5); experiment: Inhibition of MKNK1 at 10 uM
[18] = target: Serine/threonine-protein kinase Nek2 (Homo sapiens) (UniProt P51955); experiment: Inhibition of NEK2 at 10 uM
[19] = target: Serine/threonine-protein kinase Nek3 (Homo sapiens) (UniProt P51956); experiment: Inhibition of NEK3 at 10 uM
[20] = target: STE20/SPS1-related proline-alanine-rich protein kinase (Homo sapiens) (UniProt Q9UEW8); experiment: Inhibition of STK39 at 10 uM
[21] = target: Tyrosine-protein kinase SYK (Homo sapiens) (UniProt P43405); experiment: Inhibition of SYK at 10 uM
[22] = target: Wee1-like protein kinase 2 (Homo sapiens) (UniProt P0C1S8); experiment: Inhibition of WEE2 at 10 uM; settings: values are per cent of control
[23] = target: Calcium-dependent protein kinase 1 (Plasmodium falciparum) (UniProt P62344); experiment: Inhibition of Plasmodium falciparum PFCDPK1 at 10 uM; settings: values are per cent of control
[24] = target: Phosphatidylinositol 4,5-bisphosphate 3-kinase catalytic subunit delta isoform (Homo sapiens) (UniProt O00329); experiment: Inhibition of PIK3CD at 10 uM
[25] = target: Dual serine/threonine and tyrosine protein kinase (Homo sapiens) (UniProt Q6XUX3); experiment: Inhibition of RIPK5 at 10 uM
Sequence of Dual serine/threonine and tyrosine protein kinase (Homo sapiens) (Q6XUX3 whole entry, the tested form may be a part): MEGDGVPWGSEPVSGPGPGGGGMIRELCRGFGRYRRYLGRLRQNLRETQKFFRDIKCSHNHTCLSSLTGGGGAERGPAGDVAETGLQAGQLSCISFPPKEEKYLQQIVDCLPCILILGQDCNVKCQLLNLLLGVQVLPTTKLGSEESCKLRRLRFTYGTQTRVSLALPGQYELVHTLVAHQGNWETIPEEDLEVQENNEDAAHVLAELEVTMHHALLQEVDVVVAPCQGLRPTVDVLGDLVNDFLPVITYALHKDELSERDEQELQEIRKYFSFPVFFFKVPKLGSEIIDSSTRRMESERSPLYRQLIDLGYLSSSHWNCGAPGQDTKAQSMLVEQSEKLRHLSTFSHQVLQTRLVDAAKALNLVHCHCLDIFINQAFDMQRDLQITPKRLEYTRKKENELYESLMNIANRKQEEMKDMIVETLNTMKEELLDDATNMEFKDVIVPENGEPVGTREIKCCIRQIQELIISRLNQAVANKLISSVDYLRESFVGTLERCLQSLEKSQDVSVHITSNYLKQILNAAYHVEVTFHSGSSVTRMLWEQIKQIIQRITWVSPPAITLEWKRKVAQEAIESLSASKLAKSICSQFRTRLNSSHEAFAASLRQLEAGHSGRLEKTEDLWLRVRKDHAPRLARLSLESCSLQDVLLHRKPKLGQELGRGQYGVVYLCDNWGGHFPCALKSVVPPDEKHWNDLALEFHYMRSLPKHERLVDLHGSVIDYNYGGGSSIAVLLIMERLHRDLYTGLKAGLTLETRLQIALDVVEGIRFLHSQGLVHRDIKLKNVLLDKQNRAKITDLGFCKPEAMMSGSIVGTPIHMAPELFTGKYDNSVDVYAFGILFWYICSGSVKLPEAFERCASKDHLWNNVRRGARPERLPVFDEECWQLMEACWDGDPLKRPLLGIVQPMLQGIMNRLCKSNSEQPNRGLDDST

[26] = target: Ribosomal protein S6 kinase alpha-2 (Homo sapiens) (UniProt Q15349); experiment: Inhibition of RSK3 N-terminal domain1 at 10 uM
[27] = target: Serine/threonine-protein kinase SBK1 (Homo sapiens) (UniProt Q52WX2); experiment: Inhibition of SBK1 at 10 uM
[28] = target: Serine/threonine-protein kinase Sgk3 (Homo sapiens) (UniProt Q96BR1); experiment: Inhibition of SGK3 at 10 uM
[29] = target: NUAK family SNF1-like kinase 2 (Homo sapiens) (UniProt Q9H093); experiment: Inhibition of SNARK at 10 uM
[30] = target: Tyrosine-protein kinase Fyn (Homo sapiens) (UniProt P06241); experiment: Inhibition of FYN at 10 uM; values are per cent of control
[31] = target: Tyrosine-protein kinase ITK/TSK (Homo sapiens) (UniProt Q08881); experiment: Inhibition of ITK at 10 uM; values are per cent of control
[32] = target: Mitogen-activated protein kinase 1 (Homo sapiens) (UniProt P28482); experiment: Inhibition of ERK2 at 10 uM; values are per cent of control
[33] = target: Mitogen-activated protein kinase 10 (Homo sapiens) (UniProt P53779); experiment: Inhibition of JNK3 at 10 uM; values are per cent of control
Sequence of Mitogen-activated protein kinase 10 (Homo sapiens) (P53779 whole entry): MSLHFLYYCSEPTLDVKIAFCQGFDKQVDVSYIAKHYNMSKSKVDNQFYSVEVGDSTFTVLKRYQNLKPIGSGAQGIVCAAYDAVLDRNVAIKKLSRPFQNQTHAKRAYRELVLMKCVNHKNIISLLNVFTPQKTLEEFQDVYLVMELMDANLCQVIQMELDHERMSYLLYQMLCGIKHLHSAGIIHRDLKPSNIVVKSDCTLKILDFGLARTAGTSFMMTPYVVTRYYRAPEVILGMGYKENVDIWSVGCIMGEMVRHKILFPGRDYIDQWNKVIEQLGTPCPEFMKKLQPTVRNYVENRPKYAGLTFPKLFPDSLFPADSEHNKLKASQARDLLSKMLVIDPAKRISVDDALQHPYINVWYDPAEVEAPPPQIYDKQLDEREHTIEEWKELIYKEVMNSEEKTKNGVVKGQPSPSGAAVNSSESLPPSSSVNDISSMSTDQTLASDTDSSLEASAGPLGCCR

[34] = target: Cyclin-dependent kinase 19 (Homo sapiens) (UniProt Q9BWU1); experiment: Inhibition of CDK11 at 10 uM; values are per cent of control
[35] = target: Serine/threonine-protein kinase LATS1 (Homo sapiens) (UniProt O95835); experiment: Inhibition of LATS1 at 10 uM; values are per cent of control
[36] = target: Mitogen-activated protein kinase 11 (Homo sapiens) (UniProt Q15759); experiment: Inhibition of p38beta at 10 uM; values are per cent of control
Sequence of Mitogen-activated protein kinase 11 (Homo sapiens) (Q15759 whole entry): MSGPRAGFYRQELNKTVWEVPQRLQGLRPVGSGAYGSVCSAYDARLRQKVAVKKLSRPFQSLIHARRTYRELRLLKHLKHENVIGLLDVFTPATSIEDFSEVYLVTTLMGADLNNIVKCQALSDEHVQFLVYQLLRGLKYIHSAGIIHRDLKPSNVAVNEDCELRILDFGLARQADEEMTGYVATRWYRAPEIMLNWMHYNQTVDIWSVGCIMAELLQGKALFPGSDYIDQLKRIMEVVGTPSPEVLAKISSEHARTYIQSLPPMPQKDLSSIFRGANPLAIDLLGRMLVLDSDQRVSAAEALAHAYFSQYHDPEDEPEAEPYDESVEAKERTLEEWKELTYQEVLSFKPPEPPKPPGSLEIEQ

[37] = target: Cyclin-dependent kinase 4/cyclin D1 (Homo sapiens) (UniProt P11802+P24385); experiment: Inhibition of CDK4/cyclin D1 at 10 uM; values are per cent of control
[38] = system: Proto-oncogene tyrosine-protein kinase receptor Ret (Homo sapiens), P07949 [V804L]; experiment: Inhibition of RET V804L mutant at 10 uM; values are per cent of control
Sequence of Proto-oncogene tyrosine-protein kinase receptor Ret (Homo sapiens), P07949 [V804L] (P07949 whole entry V804L): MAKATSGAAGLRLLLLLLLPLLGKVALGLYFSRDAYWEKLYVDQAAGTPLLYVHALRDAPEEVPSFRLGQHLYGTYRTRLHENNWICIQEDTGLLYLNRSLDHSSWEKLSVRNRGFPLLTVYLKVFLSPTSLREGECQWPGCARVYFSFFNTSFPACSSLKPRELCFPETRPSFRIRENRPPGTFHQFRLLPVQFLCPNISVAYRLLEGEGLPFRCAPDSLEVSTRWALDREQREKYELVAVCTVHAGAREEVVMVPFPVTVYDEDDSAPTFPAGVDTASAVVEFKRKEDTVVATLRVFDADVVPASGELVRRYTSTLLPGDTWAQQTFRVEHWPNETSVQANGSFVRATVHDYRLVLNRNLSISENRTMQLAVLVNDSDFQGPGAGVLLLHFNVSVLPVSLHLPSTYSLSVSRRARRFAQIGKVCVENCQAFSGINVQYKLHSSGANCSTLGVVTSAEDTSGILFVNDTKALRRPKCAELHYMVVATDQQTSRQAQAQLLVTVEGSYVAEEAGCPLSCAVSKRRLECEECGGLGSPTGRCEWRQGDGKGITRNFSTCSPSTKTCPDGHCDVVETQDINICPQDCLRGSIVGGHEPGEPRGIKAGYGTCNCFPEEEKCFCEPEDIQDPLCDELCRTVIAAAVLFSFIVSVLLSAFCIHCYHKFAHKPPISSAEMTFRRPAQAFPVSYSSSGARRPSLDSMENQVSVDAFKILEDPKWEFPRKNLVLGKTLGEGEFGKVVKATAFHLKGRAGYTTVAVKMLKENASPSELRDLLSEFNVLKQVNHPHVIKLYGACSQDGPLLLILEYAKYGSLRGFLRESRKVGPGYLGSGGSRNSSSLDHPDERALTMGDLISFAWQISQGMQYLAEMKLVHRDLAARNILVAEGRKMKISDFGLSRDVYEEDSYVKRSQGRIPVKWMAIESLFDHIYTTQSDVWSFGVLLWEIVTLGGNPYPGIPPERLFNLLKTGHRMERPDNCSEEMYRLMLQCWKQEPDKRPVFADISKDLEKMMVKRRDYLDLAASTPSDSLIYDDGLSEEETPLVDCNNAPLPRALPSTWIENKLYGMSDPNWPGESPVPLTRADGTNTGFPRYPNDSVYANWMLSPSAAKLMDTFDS

[39] = system: Epidermal growth factor receptor (Homo sapiens), P00533 [G719S]; experiment: Inhibition of EGFR G719S mutant at 10 uM; values are per cent of control
Sequence of Epidermal growth factor receptor (Homo sapiens), P00533 [G719S] (P00533 whole entry G719S): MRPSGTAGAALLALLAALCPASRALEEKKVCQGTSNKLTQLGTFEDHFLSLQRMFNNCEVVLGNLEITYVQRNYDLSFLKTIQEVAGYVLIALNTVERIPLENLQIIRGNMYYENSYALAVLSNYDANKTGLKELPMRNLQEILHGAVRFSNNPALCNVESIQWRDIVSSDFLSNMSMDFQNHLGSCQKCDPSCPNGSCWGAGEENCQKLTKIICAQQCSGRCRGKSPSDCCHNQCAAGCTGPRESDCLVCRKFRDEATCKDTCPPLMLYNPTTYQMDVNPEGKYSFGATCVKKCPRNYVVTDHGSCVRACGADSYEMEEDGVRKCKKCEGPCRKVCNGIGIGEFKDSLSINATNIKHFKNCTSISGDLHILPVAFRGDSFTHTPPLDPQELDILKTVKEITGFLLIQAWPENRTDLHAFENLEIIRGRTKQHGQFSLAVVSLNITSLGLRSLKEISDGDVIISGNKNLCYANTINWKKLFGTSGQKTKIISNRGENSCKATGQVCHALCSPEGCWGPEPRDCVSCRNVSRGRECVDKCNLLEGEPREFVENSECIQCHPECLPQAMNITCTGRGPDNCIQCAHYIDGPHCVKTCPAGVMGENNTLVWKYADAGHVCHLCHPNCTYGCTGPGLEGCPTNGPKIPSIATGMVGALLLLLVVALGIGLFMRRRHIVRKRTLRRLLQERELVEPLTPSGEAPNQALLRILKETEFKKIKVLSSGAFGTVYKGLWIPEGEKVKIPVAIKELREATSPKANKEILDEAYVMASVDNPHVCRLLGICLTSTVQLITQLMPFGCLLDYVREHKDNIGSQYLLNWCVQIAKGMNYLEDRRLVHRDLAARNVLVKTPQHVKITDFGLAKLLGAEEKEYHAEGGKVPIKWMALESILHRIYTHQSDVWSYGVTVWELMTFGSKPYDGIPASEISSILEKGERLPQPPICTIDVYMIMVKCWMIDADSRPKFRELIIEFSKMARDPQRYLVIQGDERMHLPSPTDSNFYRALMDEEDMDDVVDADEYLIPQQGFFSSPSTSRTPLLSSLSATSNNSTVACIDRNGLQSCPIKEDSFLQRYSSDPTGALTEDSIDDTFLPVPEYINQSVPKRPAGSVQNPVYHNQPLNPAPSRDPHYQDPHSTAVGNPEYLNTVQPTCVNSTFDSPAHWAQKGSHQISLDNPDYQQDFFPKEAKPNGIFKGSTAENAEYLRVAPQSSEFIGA

[40] = target: Epidermal growth factor receptor (Homo sapiens) (UniProt P04626+P00533+Q15303+P21860); experiment: Inhibition of EGFR L747-T751del, Sins mutant at 10 uM; values are per cent of control

CCN1CCN(Cc2ccc(NC(=O)c3ccc(C)c(C#Cc4cccnc4)c3)cc2C(F)(F)F)CC1
pEC50 [1]: 5.80
residual binding, % of control [2]: 0%
residual binding, % of control [3]: 100%
residual binding, % of control [4]: 100%
residual binding, % of control [5]: 0%
residual binding, % of control [6]: 100%
residual binding, % of control [7]: 48%
residual binding, % of control [8]: 0.55%
residual binding, % of control [9]: 0.05%
residual binding, % of control [10]: 0%
residual binding, % of control [11]: 2.2%
residual binding, % of control [12]: 80%
residual binding, % of control [13]: 6%
residual binding, % of control [14]: 78%
residual binding, % of control [15]: 95%
residual binding, % of control [16]: 86%
inhibition [17]: 0.25%
inhibition [18]: 100%
inhibition [19]: 53%
inhibition [20]: 89%
inhibition [21]: 13%
residual binding, % of control [22]: 100%
residual binding, % of control [23]: 0.05%
inhibition [24]: 76%
inhibition [25]: 27%
inhibition [26]: 9.5%
inhibition [27]: 88%
inhibition [28]: 6.2%
inhibition [29]: 99%
level, % of control [30]: 0.35%
level, % of control [31]: 44%
level, % of control [32]: 100%
level, % of control [33]: 0.95%
level, % of control [34]: 5%
level, % of control [35]: 20%
level, % of control [36]: 0%
level, % of control [37]: 21%
level, % of control [38]: 0%
level, % of control [39]: 2.4%
level, % of control [40]: 0.45%

CCN1CCN(Cc2ccc(NC(=O)c3ccc(C)c(C#Cc4cnc5[nH]ccc5c4)c3)cc2C(F)(F)F)CC1
pEC50 [1]: 6.00
residual binding, % of control [2]: 0.05%
residual binding, % of control [3]: 100%
residual binding, % of control [4]: 24%
residual binding, % of control [5]: 0%
residual binding, % of control [6]: 100%
residual binding, % of control [7]: 51%
residual binding, % of control [8]: 0.1%
residual binding, % of control [9]: 0.15%
residual binding, % of control [10]: 0%
residual binding, % of control [11]: 1.9%
residual binding, % of control [12]: 96%
residual binding, % of control [13]: 8.2%
residual binding, % of control [14]: 72%
residual binding, % of control [15]: 98%
residual binding, % of control [16]: 67%
inhibition [17]: 1.2%
inhibition [18]: 100%
inhibition [19]: 49%
inhibition [20]: 100%
inhibition [21]: 1%
residual binding, % of control [22]: 20%
residual binding, % of control [23]: 0.2%
inhibition [24]: 76%
inhibition [25]: 8.2%
inhibition [26]: 0.7%
inhibition [27]: 87%
inhibition [28]: 11%
inhibition [29]: 84%
level, % of control [30]: 0.25%
level, % of control [31]: 2.2%
level, % of control [32]: 100%
level, % of control [33]: 1.8%
level, % of control [34]: 4.2%
level, % of control [35]: 3.4%
level, % of control [36]: 0%
level, % of control [37]: 29%
level, % of control [38]: 0%
level, % of control [39]: 0.15%
level, % of control [40]: 0.4%

Reference: ChEMBL document CHEMBL1177794, “Broad spectrum alkynyl inhibitors of T315I Bcr-Abl” (Bioorg Med Chem Lett, 2010)
